Key:
PDGFRβ = PDGFRβ (Rattus norvegicus (Rat), UniProt Q05030); experiment: PDGFRβ Cellular Assay (PDGFRb P-Y751 HTRF in A10 cells stimulated with PDGF-BB); format: cell-based; conditions: read-out: PDGFR Cellular IC50
Description: II. Methods and Procedures
Cell Culture and Preparation: Cells are cultured according to ATCC procedure (5) with the addition of the antibiotic penicillin-streptomycin. If working from frozen, cells should be thawed according to ATCC procedure. Depending on the cell density of frozen vial, cells will need time to recover from thaw. An 80% confluent T75 flask should be enough for one 384 well plate.
Stock Solutions: Rat PDGFBB. A 100 ug/mL stock is prepared by reconstituting 50 ug in 500 uL of 4 mM HCl and 0.1% BSA. It can be stored for a month at 4° C., or aliquoted out and frozen in the −20/−80° C. to avoid multiple free-thaw cycles.
Freshly Prepared Solutions:
1× Cisbio cell lysis buffer. The cell lysis buffer is diluted 4-fold with molecular grade water. The blocking agent is then diluted 25-fold in the diluted lysis buffer.
Antibody solutions. Equal amounts d2 and cryptate antibody are diluted 20-fold in detection buffer.
Rat PDGFBB. A working stock of 100 ng/mL is created from the stock solution in 10% FBS culture media.
Step 1: Plating Cells: Media from the A10 cell flask is aspirated. The cells are rinsed with PBS and then trypsinized to disperse the cell layer. The cells are then pelleted are resuspended to 1.25e5 cells/mL. […] Plates are covered and placed in the incubator (37° C. 5% CO2) overnight to allow cells to adhere.
Step 2: Compound Dispense: Approximately 18 hours after plating, dispense 40 nL compound onto cells using Echo. Column 12 is the neutral control DMSO, column 24 is the inhibitor control 10 mM Imatinib (10 uM final assay concentration). The plate is returned to the incubator for 3 hours.
After 10 minutes the media is removed by flicking the plate.
Step 4: Cell lysis and antibody addition: 20 uL lysis buffer per well is added to the plate via Tempest. 5 uL antibody solution is added per well via the Tempest. The plate is placed on the shaker at 230 rpm for 1 hour at room temperature.
Step 5: Detection: The plate is read using the HTRF module on the BMG Pherastar. Data is analyzed using Genedata Screener.
III. Calculations and Formulas
% Inhibition: % Inhibition=(NC−sample)/(NC−PC)*100 where NC is the mean of negative control (reactions without inhibitor), and PC is the mean of positive control (10 μM imatinib).
IC50 values are determined from a 4-parameter fit, using the following equation: Y=Bottom+(Top−Bottom)/(1+10((Log IC50−X)*Hill slope)), where X=log10 of the compound concentration; top can be defined by PC; bottom defined by NC.

[1] = target: Tb-labeled inactive PDGFRβ (Homo sapiens (Human), UniProt P09619); experiment: PDGFRβ LanthaScreen Assay; format: binding; conditions: read-out: PDGFR Lantha IC50
VEGFR2, unphosphorylated = VEGFR2, unphosphorylated (Homo sapiens (Human), UniProt P35968); experiment: VEGFR ADP GLO Assay; format: biochemical
Sequence of VEGFR2, unphosphorylated (P35968 20-1356): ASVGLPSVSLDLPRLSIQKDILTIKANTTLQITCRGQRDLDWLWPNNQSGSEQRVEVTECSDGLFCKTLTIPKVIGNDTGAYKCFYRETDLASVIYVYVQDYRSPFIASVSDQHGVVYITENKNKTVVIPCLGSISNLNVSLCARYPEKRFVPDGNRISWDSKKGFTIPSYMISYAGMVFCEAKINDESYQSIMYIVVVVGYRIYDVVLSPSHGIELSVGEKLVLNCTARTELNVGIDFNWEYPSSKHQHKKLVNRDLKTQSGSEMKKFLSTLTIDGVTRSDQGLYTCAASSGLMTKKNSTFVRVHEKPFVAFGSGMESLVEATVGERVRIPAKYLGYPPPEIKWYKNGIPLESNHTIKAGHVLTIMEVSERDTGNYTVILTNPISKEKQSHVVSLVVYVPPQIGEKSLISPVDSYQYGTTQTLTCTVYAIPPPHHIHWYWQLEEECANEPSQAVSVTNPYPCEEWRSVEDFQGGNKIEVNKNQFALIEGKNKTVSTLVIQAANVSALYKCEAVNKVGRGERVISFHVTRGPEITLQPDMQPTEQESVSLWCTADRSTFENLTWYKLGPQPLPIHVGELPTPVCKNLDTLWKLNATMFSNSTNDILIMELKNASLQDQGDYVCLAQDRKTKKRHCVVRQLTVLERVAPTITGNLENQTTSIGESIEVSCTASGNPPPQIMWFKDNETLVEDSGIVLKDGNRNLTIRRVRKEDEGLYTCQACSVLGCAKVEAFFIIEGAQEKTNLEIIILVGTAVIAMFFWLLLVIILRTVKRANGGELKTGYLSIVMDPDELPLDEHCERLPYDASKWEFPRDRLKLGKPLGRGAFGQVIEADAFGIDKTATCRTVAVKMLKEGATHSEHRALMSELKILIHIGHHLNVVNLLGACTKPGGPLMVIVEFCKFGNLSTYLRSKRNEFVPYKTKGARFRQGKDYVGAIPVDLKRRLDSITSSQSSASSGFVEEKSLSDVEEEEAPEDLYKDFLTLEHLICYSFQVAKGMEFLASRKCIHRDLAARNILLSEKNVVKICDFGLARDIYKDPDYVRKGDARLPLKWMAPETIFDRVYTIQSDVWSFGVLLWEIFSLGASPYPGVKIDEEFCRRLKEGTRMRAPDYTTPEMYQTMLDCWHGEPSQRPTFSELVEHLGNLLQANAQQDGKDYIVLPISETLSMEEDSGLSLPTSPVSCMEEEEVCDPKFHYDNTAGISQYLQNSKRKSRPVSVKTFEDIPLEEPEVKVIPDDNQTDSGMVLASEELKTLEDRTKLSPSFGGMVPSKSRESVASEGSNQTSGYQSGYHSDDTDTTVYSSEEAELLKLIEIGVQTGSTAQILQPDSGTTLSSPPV

Sequence of Tb-labeled inactive PDGFRβ (P09619 33-1106): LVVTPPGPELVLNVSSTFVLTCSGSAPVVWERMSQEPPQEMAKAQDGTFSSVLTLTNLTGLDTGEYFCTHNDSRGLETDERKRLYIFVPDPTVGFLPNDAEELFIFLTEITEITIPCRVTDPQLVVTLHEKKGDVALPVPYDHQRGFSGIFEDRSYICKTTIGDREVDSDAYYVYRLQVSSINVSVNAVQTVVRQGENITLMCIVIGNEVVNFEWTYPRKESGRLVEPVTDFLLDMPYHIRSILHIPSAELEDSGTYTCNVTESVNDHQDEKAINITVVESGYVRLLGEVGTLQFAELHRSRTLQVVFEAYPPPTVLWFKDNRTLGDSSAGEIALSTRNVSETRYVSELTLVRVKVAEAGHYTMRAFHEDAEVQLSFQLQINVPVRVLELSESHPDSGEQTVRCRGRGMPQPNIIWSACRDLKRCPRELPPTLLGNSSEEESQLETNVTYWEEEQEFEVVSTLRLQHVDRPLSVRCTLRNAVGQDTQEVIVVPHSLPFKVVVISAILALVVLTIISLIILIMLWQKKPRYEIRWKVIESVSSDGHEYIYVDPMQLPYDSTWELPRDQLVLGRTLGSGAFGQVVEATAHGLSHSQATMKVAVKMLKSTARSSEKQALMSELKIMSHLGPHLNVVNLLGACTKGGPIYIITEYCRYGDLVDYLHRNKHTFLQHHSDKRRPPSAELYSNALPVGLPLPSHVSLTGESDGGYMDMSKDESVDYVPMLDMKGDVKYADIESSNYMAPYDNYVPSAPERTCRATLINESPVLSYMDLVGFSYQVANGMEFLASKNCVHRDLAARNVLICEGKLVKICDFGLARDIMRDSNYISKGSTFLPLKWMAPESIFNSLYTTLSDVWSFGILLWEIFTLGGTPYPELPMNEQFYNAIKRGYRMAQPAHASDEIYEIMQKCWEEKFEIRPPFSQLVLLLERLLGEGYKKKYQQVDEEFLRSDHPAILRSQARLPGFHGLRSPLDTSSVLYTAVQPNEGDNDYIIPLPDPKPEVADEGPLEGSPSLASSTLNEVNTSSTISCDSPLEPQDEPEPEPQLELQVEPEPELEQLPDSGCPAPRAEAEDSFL
Sequence of PDGFRβ (Q05030 32-1097): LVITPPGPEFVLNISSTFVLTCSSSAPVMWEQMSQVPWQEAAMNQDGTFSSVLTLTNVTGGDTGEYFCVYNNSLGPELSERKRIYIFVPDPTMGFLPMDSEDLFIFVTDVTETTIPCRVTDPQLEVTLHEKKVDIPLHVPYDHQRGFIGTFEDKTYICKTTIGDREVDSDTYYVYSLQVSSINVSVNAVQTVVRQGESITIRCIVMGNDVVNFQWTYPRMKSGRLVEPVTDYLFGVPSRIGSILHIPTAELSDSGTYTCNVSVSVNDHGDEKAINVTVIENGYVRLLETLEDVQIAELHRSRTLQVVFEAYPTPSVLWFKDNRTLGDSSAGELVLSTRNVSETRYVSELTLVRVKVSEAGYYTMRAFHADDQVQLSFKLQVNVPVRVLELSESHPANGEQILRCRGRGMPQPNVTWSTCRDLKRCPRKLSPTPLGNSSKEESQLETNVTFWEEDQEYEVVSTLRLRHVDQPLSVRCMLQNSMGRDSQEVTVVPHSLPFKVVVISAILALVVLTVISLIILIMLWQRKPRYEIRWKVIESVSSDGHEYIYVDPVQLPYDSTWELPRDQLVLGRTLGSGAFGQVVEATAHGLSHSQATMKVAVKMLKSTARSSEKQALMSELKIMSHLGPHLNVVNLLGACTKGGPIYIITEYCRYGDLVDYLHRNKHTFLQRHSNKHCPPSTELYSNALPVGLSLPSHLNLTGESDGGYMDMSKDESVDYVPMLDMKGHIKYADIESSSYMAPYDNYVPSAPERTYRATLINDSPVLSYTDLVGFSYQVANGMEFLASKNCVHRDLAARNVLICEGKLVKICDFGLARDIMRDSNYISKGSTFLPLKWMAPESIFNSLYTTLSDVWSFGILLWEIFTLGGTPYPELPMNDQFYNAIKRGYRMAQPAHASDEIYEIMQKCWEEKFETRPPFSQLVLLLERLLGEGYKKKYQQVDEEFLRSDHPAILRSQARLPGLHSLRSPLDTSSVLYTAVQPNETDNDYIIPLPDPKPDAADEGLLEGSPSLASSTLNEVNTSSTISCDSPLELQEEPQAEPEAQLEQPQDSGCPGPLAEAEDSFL

| SMILES | IC50 (PDGFRβ) [nM] | IC50 [1] [nM] | IC50 (VEGFR2, unphosphorylated) [nM] |
| --- | --- | --- | --- |
| Cc1ncc(C(=O)NCCN2CC3CCC2CC3)cc1NC(=O)c1cnn2cc(-c3cnn(CS(C)(=O)=O)c3)sc12 [Example 143, N-(5-((2-(2-azabicyclo[2.2.2]octan-2-yl)ethyl)carbamoyl)-2-methylpyridin-3-yl)-2-(1-((methylsulfonyl)methyl)-1H-pyrazol-4-yl)pyrazolo[5,1-b]thiazole-7-carboxamide] | 998 | 5.3 | > 7500 |
| Cc1ncc(NC(=O)CCN2CCCC2(C)C)cc1NC(=O)c1cnn2cc(-c3ccnn3C)sc12 [Example 11, N-(5-(3-(2,2-dimethylpyrrolidin-1-yl)propanamido)-2-methyl-pyridin-3-yl)-2-(1-methyl-1H-pyrazol-5-yl)pyrazolo[5,1-b]thiazole-7-carboxamide] | 10.6 | 5 | > 7500 |
| COCCn1nc(C)c(-c2cn3ncc(C(=O)Nc4cc(NC(=O)CCN5CCC6(CC6)C5)cnc4C)c3s2)c1C [Example 103, N-(5-(3-(5-azaspiro[2.4]heptan-5-yl)propanamido)-2-methylpyridin-3-yl)-2-(1-(2-methoxyethyl)-3,5-dimethyl-1H-pyrazol-4-yl)pyrazolo[5,1-b]thiazole-7-carboxamide] | 38.8 | 8.6 | > 7500 |
| Cc1ncc(C(=O)NCCN2CCC(F)(F)C2)cc1NC(=O)c1cnn2cc(-c3cnn(C)c3)sc12 [Example 120, N-(5-((2-(3,3-difluoropyrrolidin-1-yl)ethyl)carbamoyl)-2-methylpyridin-3-yl)-2-(1-methyl-1H-pyrazol-4-yl)pyrazolo[5,1-b]thiazole-7-carboxamide] | 9.3 | 4.5 | > 7500 |
| Cc1ncc(C(=O)NCCN2CC3CCC2CC3)cc1NC(=O)c1cnn2cc(-c3cccnc3)sc12 [Example 149, N-(5-((2-(2-azabicyclo[2.2.2]octan-2-yl)ethyl)carbamoyl)-2-methylpyridin-3-yl)-2-(pyridin-3-yl)pyrazolo[5,1-b]thiazole-7-carboxamide] | 36.2 | 5 | > 7500 |
| Cc1ncc(C(=O)NCCN2CCC(F)(F)CC2)cc1NC(=O)c1cnn2cc(-c3cccnc3)sc12 [Example 157, N-(5-((2-(4,4-difluoropiperidin-1-yl)ethyl)carbamoyl)-2-methylpyridin-3-yl)-2-(pyridin-3-yl)pyrazolo[5,1-b]thiazole-7-carboxamide] | 21.2 | 5.9 | > 7500 |
| Cc1ncc(C(=O)NCCN2CCCC23COC3)cc1NC(=O)c1cnn2cc(-c3cnn(C)c3)sc12 [Example 114, N-(5-((2-(2-oxa-5-azaspiro[3.4]octan-5-yl)ethyl)carbamoyl)-2-methylpyridin-3-yl)-2-(1-methyl-1H-pyrazol-4-yl)pyrazolo[5,1-b]thiazole-7-carboxamide] | 27.6 | 4.6 | > 7500 |
| Cc1ncc(C(=O)NCCN2CCOCC23CC3)cc1NC(=O)c1cnn2cc(-c3cnn(C)c3)sc12 [Example 110, N-(5-((2-(7-oxa-4-azaspiro[2.5]octan-4-yl)ethyl)carbamoyl)-2-methylpyridin-3-yl)-2-(1-methyl-1H-pyrazol-4-yl)pyrazolo[5,1-b]thiazole-7-carboxamide] | 35.4 | 5.7 | 664 |
| COCCN(CCNC(=O)c1cnc(C)c(NC(=O)c2cnn3cc(-c4cnn(C)c4)sc23)c1)CCOC [Example 128, N-(5-((2-(bis(2-methoxyethyl)amino)ethyl)carbamoyl)-2-methylpyridin-3-yl)-2-(1-methyl-1H-pyrazol-4-yl)pyrazolo[5,1-b]thiazole-7-carboxamide] | 46.8 | 18.3 | > 7500 |
| Cc1ncc(NC(=O)CCN2CCC3(CC2)CC3)cc1NC(=O)c1cnn2cc(-c3cnn(C)c3)sc12 [Example 97, N-(5-(3-(6-azaspiro[2.5]octan-6-yl)propanamido)-2-methylpyridin-3-yl)-2-(1-methyl-1H-pyrazol-4-yl)pyrazolo[5,1-b]thiazole-7-carboxamide] | 8.4 | 6.4 | > 7500 |
| Cc1ncc(C(=O)NCCN2CCC3(CC3)C2)cc1NC(=O)c1cnn2cc(-c3cn(C)nc3C)sc12 [Example 177, N-(5-((2-(5-azaspiro[2.4]heptan-5-yl)ethyl)carbamoyl)-2-methylpyridin-3-yl)-2-(1,3-dimethyl-1H-pyrazol-4-yl)pyrazolo[5,1-b]thiazole-7-carboxamide] | 18.2 | 2.6 | > 7500 |
| COCCN(CCNC(=O)c1cnc(C)c(NC(=O)c2cnn3cc(-c4cnn(C)c4)sc23)c1)C1CCC1 [Example 115, N-(5-((2-(cyclobutyl(2-methoxyethyl)amino)ethyl)carbamoyl)-2-methylpyridin-3-yl)-2-(1-methyl-1H-pyrazol-4-yl)pyrazolo[5,1-b]thiazole-7-carboxamide] | 13.3 | 4.7 | > 7500 |
| Cc1ncc(C(=O)NCCN2CC3(CCC3)C2)cc1NC(=O)c1cnn2cc(-c3cnn(C)c3)sc12 [Example 124, N-(5-((2-(2-azaspiro[3.3]heptan-2-yl)ethyl)carbamoyl)-2-methylpyridin-3-yl)-2-(1-methyl-1H-pyrazol-4-yl)pyrazolo[5,1-b]thiazole-7-carboxamide] | 134 | 19.6 | > 7500 |
| Cc1ncc(C(=O)NCCN2Cc3ncsc3C2)cc1NC(=O)c1cnn2cc(-c3cnn(C)c3)sc12 [Example 111, N-(5-((2-(4H-pyrrolo[3,4-d]thiazol-5 (6H)-yl)ethyl)carbamoyl)-2-methylpyridin-3-yl)-2-(1-methyl-1H-pyrazol-4-yl)pyrazolo[5,1-b]thiazole-7-carboxamide] | 294 | 36.4 | > 7500 |
| COCCn1cc(-c2cn3ncc(C(=O)Nc4cc(C(=O)NCCN5CC(C)(C)C5)cnc4C)c3s2)cn1 [Example 166, N-(5-((2-(3,3-dimethylazetidin-1-yl)ethyl)carbamoyl)-2-methylpyridin-3-yl)-2-(1-(2-methoxyethyl)-1H-pyrazol-4-yl)pyrazolo[5,1-b]thiazole-7-carboxamide] | 233 | 13.9 | > 7500 |
| Cc1ncc(C(=O)NCCN2CCCC2(C)C)cc1NC(=O)c1cnn2cc(-c3cn(C)cn3)sc12 [Example 163, N-(5-((2-(2,2-dimethylpyrrolidin-1-yl)ethyl)carbamoyl)-2-methylpyridin-3-yl)-2-(1-methyl-1H-imidazol-4-yl)pyrazolo[5,1-b]thiazole-7-carboxamide] | 160 | 3.9 | > 7500 |
| Cc1ncc(C(=O)NCCN2CCCC2(C)C)cc1NC(=O)c1cnn2cc(-c3cn(C)nc3C)sc12 [Example 174, 2-(1,3-dimethyl-1H-pyrazol-4-yl)-N-(5-((2-(2,2-dimethylpyrrolidin-1-yl)ethyl)carbamoyl)-2-methylpyridin-3-yl)pyrazolo[5,1-b]thiazole-7-carboxamide] | 9.9 | 2.5 | > 7500 |
| Cc1ncc(C(=O)NCCN2C3CCC2COC3)cc1NC(=O)c1cnn2cc(-c3cnn(C)c3)sc12 [Example 122, N-(5-((2-(3-oxa-8-azabicyclo[3.2.1]octan-8-yl)ethyl)carbamoyl)-2-methylpyridin-3-yl)-2-(1-methyl-1H-pyrazol-4-yl)pyrazolo[5,1-b]thiazole-7-carboxamide] | 19.4 | 2.8 | > 7500 |
| Cc1ncc(C(=O)NCCN2C3CCC2CC3)cc1NC(=O)c1cnn2cc(-c3cnn(C)c3C)sc12 [Example 172, N-(5-((2-(7-azabicyclo[2.2.1]heptan-7-yl)ethyl)carbamoyl)-2-methylpyridin-3-yl)-2-(1,5-dimethyl-1H-pyrazol-4-yl)pyrazolo[5,1-b]thiazole-7-carboxamide] | 66.6 | 3 | > 7500 |
| Cc1ncc(C(=O)NCCN2CCC(C)(C)C2)cc1NC(=O)c1cnn2cc(-c3ccncc3)sc12 [Example 156, N-(5-((2-(3,3-dimethylpyrrolidin-1-yl)ethyl)carbamoyl)-2-methylpyridin-3-yl)-2-(pyridin-4-yl)pyrazolo[5,1-b]thiazole-7-carboxamide] | 26.2 | 9.8 | > 7500 |
